Measurements: the NIST ThermoML archive (doi:10.1016/j.fluid.2009.09.024)
Several values for one entry are separate records, joined by “and”; a condition that tells them apart may be missing. Equal values may be shown once. ± gives the expanded uncertainty stated by the source.

Tests used:
[1] = xn = mol fraction of the nth substance listed; details: Liquid, Vibrating tube method
[2] = for mass density: Vibrating tube method; for vapor or sublimation pressure: Closed cell (Static) method

Cc1ccccc1 [toluene] + Cc1ccccc1C
[1], x1 = 1
Details | mass density [kg/m3]
333.15 K | 830.467 ± 0.24
353.15 K | 810.89 ± 0.24

Cc1ccccc1C [1,2-dimethylbenzene] + Cc1ccccc1
mass density [kg/m3], [1]
Details | 333.15 K | 353.15 K
x2 = 0 | 845.8 ± 0.23 | 828.5 ± 0.24
x2 = 0.102 | – | 826.692 ± 0.24
x2 = 0.108 | 844.136 ± 0.24 | –
x2 = 0.202 | – | 824.931 ± 0.24
x2 = 0.203 | 842.673 ± 0.24 | –
x2 = 0.299 | – | 823.222 ± 0.24
x2 = 0.301 | 841.173 ± 0.24 | –
x2 = 0.4 | 839.661 ± 0.24 | 821.449 ± 0.24
x2 = 0.499 | 838.134 ± 0.24 | 819.705 ± 0.24
x2 = 0.6 | – | 817.918 ± 0.24
x2 = 0.601 | 836.576 ± 0.24 | –
x2 = 0.699 | 835.072 ± 0.24 | 816.176 ± 0.24
x2 = 0.799 | – | 814.417 ± 0.24
x2 = 0.8 | 833.533 ± 0.24 | –
x2 = 0.899 | – | 812.661 ± 0.24
x2 = 0.9 | 831.999 ± 0.24 | –

Cc1ccccc1C [1,2-dimethylbenzene] + O=S1(=O)CCCC1
[1], x1 = 1
Details | mass density [kg/m3]
333.15 K | 845.839 ± 0.23
353.15 K | 828.528 ± 0.24

O=S1(=O)CCCC1 [sulfolane] + Cc1cccc(C)c1
mass density [kg/m3], [1]
Details | 333.15 K | 353.15 K
x2 = 0 | 1231.12 ± 0.42 | 1214.39 ± 0.41
x2 = 0.01 | 1227.11 ± 0.9 | –
x2 = 0.015 | 1225.1 ± 0.9 | 1208.34 ± 0.9
x2 = 0.02 | 1223.09 ± 0.9 | 1206.33 ± 0.9
x2 = 0.03 | 1219.07 ± 0.9 | 1202.3 ± 0.9
x2 = 0.05 | – | 1194.25 ± 0.9
x2 = 0.1 | 1190.81 ± 0.89 | 1173.97 ± 0.89
x2 = 0.199 | 1150.86 ± 0.88 | 1133.93 ± 0.87
x2 = 0.299 | 1110.94 ± 0.86 | 1093.91 ± 0.86
x2 = 0.399 | 1070.45 ± 0.86 | 1053.33 ± 0.85
x2 = 0.501 | 1029.46 ± 0.84 | 1012.24 ± 0.84
x2 = 0.6 | 989.939 ± 0.84 | 972.621 ± 0.84
x2 = 0.7 | 949.485 ± 0.84 | 932.07 ± 0.84
x2 = 0.799 | 909.766 ± 0.83 | 892.257 ± 0.84
x2 = 0.9 | 869.443 ± 0.83 | 851.836 ± 0.84

CCCCCCCCC [nonane] + c1ccccc1
mass density [kg/m3], [1]
Details | 333.15 K | 353.15 K
x2 = 0 | 685.961 ± 0.25 | 669.919 ± 0.25
x2 = 0.1 | 700.985 ± 0.38 | –
x2 = 0.101 | – | 684.481 ± 0.38
x2 = 0.199 | – | 698.728 ± 0.37
x2 = 0.2 | 715.957 ± 0.38 | –
x2 = 0.248 | – | 705.756 ± 0.36
x2 = 0.3 | – | 713.217 ± 0.36
x2 = 0.302 | 731.175 ± 0.37 | –
x2 = 0.399 | – | 727.581 ± 0.36
x2 = 0.404 | 746.508 ± 0.36 | –
x2 = 0.499 | – | 741.992 ± 0.35
x2 = 0.502 | 761.194 ± 0.36 | –
x2 = 0.599 | 775.788 ± 0.35 | 756.286 ± 0.35
x2 = 0.699 | 790.766 ± 0.35 | –
x2 = 0.701 | – | 771.023 ± 0.34
x2 = 0.799 | 805.683 ± 0.34 | 785.21 ± 0.34
x2 = 0.899 | 820.654 ± 0.34 | 799.582 ± 0.33
x2 = 0.94 | 826.713 ± 0.34 | –
x2 = 0.969 | 831.191 ± 0.34 | –

CCCCCCCCC [nonane]
[2]
Details | mass density, 333.15 K [kg/m3] | mass density, 353.15 K [kg/m3] | vapor or sublimation pressure, 333.15 K [kPa] | vapor or sublimation pressure, 353.15 K [kPa]
Gas | 0.1868 | 0.4513 ± 0.1 | – | –
Liquid | 685.961 ± 0.25 | 669.919 ± 0.25 | 3.97 ± 0.03 | 10.28 ± 0.06

Cc1cccc(C)c1 [1,3-dimethylbenzene] + O=S1(=O)CCCC1
[1], x1 = 1
Details | mass density [kg/m3]
333.15 K | 829.305 ± 0.24
353.15 K | 811.602 ± 0.24

Cc1ccccc1 [toluene]
[2]
Details | mass density, 333.15 K [kg/m3] | mass density, 353.15 K [kg/m3] | vapor or sublimation pressure, 333.15 K [kPa] | vapor or sublimation pressure, 353.15 K [kPa]
Gas | 0.6829 ± 0.1 | 1.3863 ± 0.1 | – | –
Liquid | 830.467 ± 0.24 | 810.89 ± 0.24 | 18.62 ± 0.1 | 38.4 ± 0.2

c1ccccc1 [benzene] + CCCCCCCCC
[1], x1 = 1
Details | mass density [kg/m3]
333.15 K | 835.696 ± 0.16
353.15 K | 814.086 ± 0.16

O=S1(=O)CCCC1 [sulfolane] + Cc1ccccc1C
mass density [kg/m3], [1]
Details | 333.15 K | 353.15 K
x2 = 0 | 1231.12 ± 1.3 | 1214.39 ± 1.3
x2 = 0.01 | 1227.27 ± 1.5 | 1210.53 ± 1.5
x2 = 0.015 | 1225.35 ± 1.5 | 1208.6 ± 1.5
x2 = 0.02 | 1223.42 ± 1.5 | 1206.67 ± 1.5
x2 = 0.03 | 1219.57 ± 1.5 | 1202.81 ± 1.5
x2 = 0.1 | 1192.25 ± 1.4 | 1175.45 ± 1.4
x2 = 0.2 | 1153.84 ± 1.2 | 1136.98 ± 1.2
x2 = 0.3 | 1115.37 ± 1.1 | 1098.46 ± 1.1
x2 = 0.4 | 1076.99 ± 1 | 1060.02 ± 1
x2 = 0.499 | 1038.59 ± 0.94 | 1021.56 ± 0.93
x2 = 0.599 | 1000.24 ± 0.88 | 983.157 ± 0.88
x2 = 0.699 | 961.436 ± 0.85 | 944.296 ± 0.85
x2 = 0.801 | 922.401 ± 0.82 | 905.202 ± 0.82
x2 = 0.899 | 884.731 ± 0.81 | 867.477 ± 0.81

Cc1ccccc1C [1,2-dimethylbenzene]
[2]
Details | mass density, 333.15 K | mass density, 353.15 K | vapor or sublimation pressure, 333.15 K | vapor or sublimation pressure, 353.15 K
Gas | – | 0.4397 ± 0.1 kg/m3 and 0.4571 ± 0.1 kg/m3 | – | –
Liquid | 845.8 ± 0.23 kg/m3 and 845.839 ± 0.23 kg/m3 | 828.5 ± 0.24 kg/m3 and 828.528 ± 0.24 kg/m3 | 5.32 ± 0.04 kPa and 5.44 ± 0.04 kPa | 12.8 ± 0.08 kPa and 12.66 ± 0.08 kPa

O=S1(=O)CCCC1 [sulfolane]
[2], Liquid
Details | mass density [kg/m3] | vapor or sublimation pressure [kPa]
333.15 K | 1231.12 ± 0.42 | 0.01 ± 0.01
353.15 K | 1214.39 ± 0.41 | 0.04 ± 0.01

Cc1cccc(C)c1 [1,3-dimethylbenzene]
[2]
Details | mass density, 333.15 K [kg/m3] | mass density, 353.15 K [kg/m3] | vapor or sublimation pressure, 333.15 K [kPa] | vapor or sublimation pressure, 353.15 K [kPa]
Gas | 0.252 ± 0.1 | 0.5448 ± 0.1 | – | –
Liquid | 829.305 ± 0.24 | 811.602 ± 0.24 | 6.59 ± 0.05 | 15.09 ± 0.09

c1ccccc1 [benzene]
[2]
Details | mass density, 333.15 K [kg/m3] | mass density, 353.15 K [kg/m3] | vapor or sublimation pressure, 333.15 K [kPa] | vapor or sublimation pressure, 353.15 K [kPa]
Gas | 1.5172 ± 0.1 | 2.69 ± 0.1 | – | –
Liquid | 835.696 ± 0.16 | 814.086 ± 0.16 | 52.45 ± 0.27 | 100 ± 0.51
